The AC50 is the concentration at which the activity in the assay is half-maximal.

The results in this text go back to PMC4300089, “Structure-Guided Design of Selective Epac1 and Epac2 Agonists” (PLoS Biology, 2015).

Changes are numbered by the printed parent chain.

The subject of experiment [1] is PKA. The experiment is described as follows: Cellular PKA activity: P-VASP band shift in U2OS Epac1 and Epac2 cell lines. Conditions: for rel. P-VASP: PKA, average of Epac1 and Epac2 cell lines, relative to induction with forskolin and IBMX, Fig. 6C; for activation of PKA in cells: U2OS cell lines. Type of experiment: cell-based. The procedure: Rap•GTP levels were determined by precipitating GTP-bound Rap specifically from cell lysates and subsequent western Blotting with an α-Rap antibody (Santa Cruz Biotechnology). To generate stable cell lines, U2OS cells were transfected with pBabe-Flag-Epac1 (Epac1, homo sapiens, amino acids 1–881) or pBabe-Flag-Epac2 (Epac2, mus musculus, amino acids 1–993), selected for Epac expression and maintained under selection with 2 mg/l puromycin. The cells were cultured according to standard protocols. The activity of PKA was determined by western blotting with a monoclonal α-VASP antibody (BD Transduction Laboratories). Blots were developed by enhanced chemiluminescence (ECL) and the use of X-ray films; for quantification films were scanned. The intensities of the Rap•GTP bands and the upper band of VASP (P-VASP) were determined for each condition in ImageJ and normalized to the stimulation with forskolin and IBMX for each blot.

The target in experiment [2] is T1, Epac2^Δ280 (Mus musculus, UniProt Q9EQZ6).
T1 construct: made in house
T1 sequence (Q9EQZ6 281-993 isoform Q9EQZ6-3): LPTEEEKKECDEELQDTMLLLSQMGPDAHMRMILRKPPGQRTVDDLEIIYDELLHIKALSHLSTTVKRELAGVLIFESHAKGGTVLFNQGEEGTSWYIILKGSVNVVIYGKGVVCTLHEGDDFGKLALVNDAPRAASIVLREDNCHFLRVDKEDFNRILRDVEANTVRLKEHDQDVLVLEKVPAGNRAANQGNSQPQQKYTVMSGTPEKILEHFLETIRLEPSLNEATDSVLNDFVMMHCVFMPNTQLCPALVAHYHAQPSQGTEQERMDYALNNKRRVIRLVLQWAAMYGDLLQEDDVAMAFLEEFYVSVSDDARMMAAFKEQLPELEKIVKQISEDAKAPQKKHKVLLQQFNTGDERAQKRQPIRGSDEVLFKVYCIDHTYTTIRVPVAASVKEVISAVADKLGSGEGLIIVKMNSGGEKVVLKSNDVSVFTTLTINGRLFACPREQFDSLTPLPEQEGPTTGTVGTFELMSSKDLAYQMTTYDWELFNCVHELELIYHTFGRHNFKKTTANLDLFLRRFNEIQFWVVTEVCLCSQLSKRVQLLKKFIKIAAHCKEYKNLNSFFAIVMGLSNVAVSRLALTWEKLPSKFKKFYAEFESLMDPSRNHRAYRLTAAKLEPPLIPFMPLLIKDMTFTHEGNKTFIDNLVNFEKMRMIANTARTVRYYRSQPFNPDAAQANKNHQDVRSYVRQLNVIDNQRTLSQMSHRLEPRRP
Description: Epac activation assay (Rap1B•mGDP fluorescence nucleotide exchange), Epac2^Δ280. Format: biochemical. Conditions: for AC50 / Rel. kmax: Epac2^Δ280; for Rel. kmax: maximal activity relative to cAMP. The procedure: (§1) Murine Epac2 was used as all previous structural studies were performed with it.
(§2) The activity of Epac was determined by a fluorescence assay. […] The fluorescence intensity of Rap1B•mGDP is approximately twice that of free mGDP, and thus, nucleotide exchange can be observed as a decay in fluorescence upon the addition of excess unlabeled GDP.

The target of experiment [3] is T2, Epac2^Δ280,K450A (Mus musculus, UniProt Q9EQZ6, K468A).
T2 construct: made in house
T2 sequence (Q9EQZ6 281-993 isoform Q9EQZ6-3 K450A): T1 sequence (Q9EQZ6 281-993 isoform Q9EQZ6-3) with K170A
The experiment is described as follows: Epac activation assay, Epac2 K450A mutant. Type of experiment: biochemical. As to the method: as §1, §2

Regarding `COC1C2OP(=O)(O)OCC2OC1n1c(Sc2ccc(Cl)cc2)nc2c(N)ncnc21` [D-007, 8-pCPT-2′-O-Me-cAMP, reference compound], in experiment [1], the “rel. P-VASP” value amounted to 0.1351 and the “activation of PKA in cells” value is listed as “only minor effects”. In experiment [2], this molecule showed a half-maximal activity concentration (AC50) of 3500 nM and a Rel. kmax of 0.8.
Turning to `Nc1ncnc2c1nc(SCc1ccccc1)n2[C@@H]1O[C@@H]2CO[P@](O)(=S)O[C@H]2[C@H]1O` [S-220, Sp-8-BnT-cAMPS], the kobs in experiment [3] (0.001 μM compound) stood at 3.1e-05 s⁻¹; in experiment [3] (0.003 μM compound) it was 3.7e-05 s⁻¹; in experiment [3] (0.005 μM compound), 4.4e-05 s⁻¹; in experiment [3] (0.008 μM compound) it was 5.2e-05 s⁻¹; in experiment [3] (0.02 μM compound), 0.00011 s⁻¹; in experiment [3] (0.03 μM compound), 0.000139 s⁻¹. Moreover, the kobs in experiment [3] (0.04 μM compound) came to 0.000168 s⁻¹; in experiment [3] (0.05 μM compound), 0.000199 s⁻¹; in experiment [3] (0.06 μM compound), 0.000232 s⁻¹; in experiment [3] (0.07 μM compound), 0.00026 s⁻¹; in experiment [3] (0.08 μM compound), 0.000277 s⁻¹; in experiment [3] (0.1 μM compound) it was 0.000306 s⁻¹. Also, the kobs in experiment [3] (0.2 μM compound) came to 0.000564 s⁻¹; in experiment [3] (0.3 μM compound) it was 0.000705 s⁻¹; in experiment [3] (0.4 μM compound), 0.000743 s⁻¹; in experiment [3] (0.5 μM compound), 0.000763 s⁻¹; in experiment [3] (0.6 μM compound) it was 0.000845 s⁻¹; in experiment [3] (0.7 μM compound), 0.000882 s⁻¹. Moreover, the kobs in experiment [3] (0.8 μM compound) stood at 0.000882 s⁻¹; in experiment [3] (1 μM compound) it was 0.000894 s⁻¹; in experiment [3] (2 μM compound) it was 0.000904 s⁻¹; in experiment [3] (3 μM compound), 0.000886 s⁻¹; in experiment [3] (4 μM compound), 0.000912 s⁻¹; in experiment [3] (5 μM compound) it was 0.000879 s⁻¹. Moreover, the kobs in experiment [3] (6 μM compound) came to 0.00102 s⁻¹; in experiment [3] (7 μM compound) it was 0.00106 s⁻¹; in experiment [3] (8 μM compound), 0.00109 s⁻¹; in experiment [3] (10 μM compound) it was 0.00103 s⁻¹; in experiment [2] (0.04 μM compound), 0.000468 s⁻¹; in experiment [2] (0.05 μM compound), 0.000508 s⁻¹. In addition, the kobs in experiment [2] (0.06 μM compound) was determined as 0.000631 s⁻¹; in experiment [2] (0.07 μM compound), 0.000864 s⁻¹; in experiment [2] (0.08 μM compound), 0.000721 s⁻¹; in experiment [2] (0.1 μM compound), 0.000827 s⁻¹; in experiment [2] (0.2 μM compound) it was 0.00131 s⁻¹; in experiment [2] (0.3 μM compound) it was 0.00149 s⁻¹. For the same molecule, the kobs is 0.00167 s⁻¹ in experiment [2] (0.4 μM compound), 0.00155 s⁻¹ in experiment [2] (0.5 μM compound), 0.00184 s⁻¹ in experiment [2] (0.6 μM compound) and 0.00188 s⁻¹ in experiment [2] (0.7 μM compound). Further, the “kmax-value” in experiment [3] (Epac2^Δ280,K450A) is “reduced to that of S-000”. Further, the “rel. P-VASP” value in experiment [1] is reported as 0.1961. Besides, the “activation of PKA in cells” value in experiment [1] is given as “very low”. In experiment [2], the AC50 is 100 nM. The molecule also came in with a Rel. kmax in experiment [2] of 7.7.
Take `Nc1ncnc2c1nc(Sc1ccc(Cl)cc1)n2[C@@H]1O[C@@H]2COP(=O)(O)O[C@H]2[C@H]1O` [L-026, 8-pCPT-cAMP]: in experiment [1], the “rel. P-VASP” value is reported as 0.9052. In addition, in experiment [2], the AC50 amounted to 80 nM and the Rel. kmax is reported as 0.5.
